According to PubChem BioAssay AID1918941 (Molecular Pharmacology Branch, DTP, NCI, 2023):

System: SW 1271 complex spheroids, viability
Assay: Anticancer human tumor SW 1271 cell line growth inhibition [LSD1];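 also: spheroids exposed to agents for 7 days before luminescence read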;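 as to viability, T/C: 100% = DMSO vehicle control viability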
Conditions: for IC50: curve of first compound; for viability, T/C: stronger effect = lower value
From the text: Multicellular complex tumor spheroid response to LSD1 Inhibitor Iadademstat in combination with a variety of drugs and investigational agents in selected tumor cell lines
The current study was undertaken to assess response to LSD1 inhibitors in combination with standard-of-care drugs and investigational agents in solid tumor complex spheroid models as well as in the K-562 leukemia. Complex spheroids include a stromal component modeled by human endothelial cells (HUVEC) and fibroblasts modeled by human mesenchymal stem cells (MSCs). The concentration ranges selected for each drug and investigational agent were based upon clinically achievable concentrations if the clinical Cmax of the agent was known.
Compounds. The drugs and investigational agents used in this study are listed on Table 1. All of the agents used, including staurosporine (NSC755774) and gemcitabine (NSC613327), were obtained from the Developmental Therapeutics Program, NCI. FDA-approved anticancer drugs are available from the NCI at http://dtp.nci.nih.gov/branches/dscb/oncology_drugset_explanation.html. Drugs and investigational agents were >95% pure by proton nuclear magnetic resonance (NMR) and liquid chromatography/mass spectrometry (LC/MS). Stock solutions were prepared at 400x in DMSO, stored at -70 degrees C, and diluted in fresh medium prior to their use. The final concentration of DMSO in cell culture wells never exceeded 0.25% (v/v). The FDA-approved anticancer drug set is available from the Developmental Therapeutics Program at https://dtp.cancer.gov/organization/dscb/obtaining/available_plates.htm. All drugs and investigational agents were tested over a range starting from a high concentration at or near the clinical Cmax and decreasing in half-log increments. If the clinical Cmax for an agent had not been determined, the highest concentration tested was 10 microM.
Cell Lines. The patient-derived cancer cell (PDC) lines: 292921-168-R-J2-PDC, K24384-001-R-PDC, and 521955-158-R2-J5-PDC pancreatic carcinomas, 556581-035-R-J1 ovarian carcinoma, 324938-238-R-J1-PDC, 855422-203-R-J1-PDC and 883617-216-R-J1-PDC urothelial bladder carcinomas, 743489-274-T-PDC renal cell carcinoma, 138582-R-J1 Merkel cell tumor, K60290-347-R-J1 and K57222-313-R-J1-PDC glioblastomas, 653999-131-R-J2-PDC, LG0703-F948-PDC, and 349418-098-R-PDC non-small cell lung carcinomas, 885512-296-R-J2-PDC, 171881-019-R-J1-PDC breast carcinomas and 186277-243-T-J2-PDC and 233499-124-R-J2-PDC colon carcinomas were obtained from the NCI Patient-Derived Models Repository (PDMR, https://pdmr.cancer.gov). The established cell lines NCI/ADR-RES (RRID:CVCL_14520 and OVCAR-5 (RRID:CVCL_1628) ovarian carcinomas, 786-O (RRID:CVCL_1051) and A498 (RRID:CVCL_A498) renal cell carcinoma, NCI-H211 (ATCC, cat. CRL-5824; RRID:CVCL_1529), NCI-H196 (ATCC, cat. CRL-5823, RRID:CVCL_1509), SW 1271 (ATCC, cat. CRL-2177, RRID:CVCL_1716) and NCI-H1876 (ATCC, cat. CRL-5902, RRID:CVCL_1503) small cell lung carcinomas, MDA-MB-231 (RRID:CVCL_0062) and MDA-MB-468 (RRID:CVCL_0419)breast carcinomas (10-12). Pooled donor human umbilical vein endothelial cells (HUVEC, Lonza, cat. CC-2519) and human mesenchymal stem cells (hMSC, Lonza, cat. PT-2501) were purchased from Lonza (Walkersville, MD).
Cell Culture. All cells were maintained in an incubator at 37 degrees C and 5% CO2 with 95% humidity. The PDC lines were cultured according to standard operating procedures established by the NCI PDMR (https://pdmr.cancer.gov). Briefly all PDCs were thawed and cultured in Matrigel-coated flasks prepared with a working solution of 1X Ham's F-12 nutrient mix, without supplementation (Invitrogen, Waltham, MA, cat. 11765054), 100 U/mL penicillin-streptomycin (Invitrogen, cat. 15140122), and 2.5% Matrigel (Corning Inc., Corning, NY, cat. 354248) for the first three passages. […]

[1] = second compound 0.1 µM, first compound 0.000949 µM
[2] = second compound 0.1 µM, first compound 0.003 µM
[3] = second compound 0.1 µM, first compound 0.00949 µM
[4] = second compound 0.1 µM, first compound 0.03 µM
[5] = second compound 0.1 µM, first compound 0.0949 µM
[6] = second compound 0.1 µM, first compound 0.3 µM
[7] = second compound 0.316 µM, first compound 0.000949 µM
[8] = second compound 0.316 µM, first compound 0.003 µM
[9] = second compound 0.316 µM, first compound 0.00949 µM
[10] = second compound 0.316 µM, first compound 0.03 µM
[11] = second compound 0.316 µM, first compound 0.0949 µM
[12] = second compound 0.316 µM, first compound 0.3 µM
[13] = second compound 1 µM, first compound 0.000949 µM
[14] = second compound 1 µM, first compound 0.003 µM
[15] = second compound 1 µM, first compound 0.00949 µM
[16] = second compound 1 µM, first compound 0.03 µM
[17] = second compound 1 µM, first compound 0.0949 µM
[18] = second compound 1 µM, first compound 0.3 µM
[19] = second compound 3.16 µM, first compound 0.000949 µM
[20] = second compound 3.16 µM, first compound 0.003 µM
[21] = second compound 3.16 µM, first compound 0.00949 µM
[22] = second compound 3.16 µM, first compound 0.03 µM
[23] = second compound 3.16 µM, first compound 0.0949 µM
[24] = second compound 3.16 µM, first compound 0.3 µM
[25] = second compound 10 µM, first compound 0.000949 µM
[26] = second compound 10 µM, first compound 0.003 µM
[27] = second compound 10 µM, first compound 0.00949 µM
[28] = second compound 10 µM, first compound 0.03 µM
[29] = second compound 10 µM, first compound 0.0949 µM
[30] = second compound 10 µM, first compound 0.3 µM

## CCc1c2c(nc3ccc(O)cc13)-c1cc3c(c(=O)n1C2)COC(=O)[C@]3(O)CC + NC1CC1c1ccc(-c2cccc(O)c2)cc1
Second compound 0.1 µM
  IC50: < 0.949 nM
Second compound 0.316 µM
  IC50: 1.07 nM
Second compound 1 µM
  IC50: < 0.949 nM
Second compound 3.16 µM
  IC50: < 0.949 nM
Second compound 10 µM
  IC50: 2.83 nM
[1]
  viability, T/C: 48.1%
[2]
  viability, T/C: 46%
[3]
  viability, T/C: 26.5%
[4]
  viability, T/C: 8.18%
[5]
  viability, T/C: 8.27%
[6]
  viability, T/C: 3.92%
[7]
  viability, T/C: 50.5%
[8]
  viability, T/C: 45.4%
[9]
  viability, T/C: 25.9%
[10]
  viability, T/C: 10.3%
[11]
  viability, T/C: 8.68%
[12]
  viability, T/C: 6.46%
[13]
  viability, T/C: 49.4%
[14]
  viability, T/C: 43%
[15]
  viability, T/C: 27.4%
[16]
  viability, T/C: 9.38%
[17]
  viability, T/C: 5.98%
[18]
  viability, T/C: 3.79%
[19]
  viability, T/C: 48.2%
[20]
  viability, T/C: 50.2%
[21]
  viability, T/C: 26.7%
[22]
  viability, T/C: 9.15%
[23]
  viability, T/C: 5.19%
[24]
  viability, T/C: 5.82%
[25]
  viability, T/C: 56.6%
[26]
  viability, T/C: 48.5%
[27]
  viability, T/C: 30.1%
[28]
  viability, T/C: 9.23%
[29]
  viability, T/C: 7.28%
[30]
  viability, T/C: 5.03%

## Nc1ccn(C2OC(CO)C(O)C2(F)F)c(=O)n1 (stereo not given) + NC1CC1c1ccc(-c2cccc(O)c2)cc1
Second compound 0.1 µM
  IC50: > 300 nM
Second compound 0.316 µM
  IC50: > 300 nM
Second compound 1 µM
  IC50: > 300 nM
Second compound 3.16 µM
  IC50: > 300 nM
Second compound 10 µM
  IC50: > 300 nM
[1]
  viability, T/C: 76.7%
[2]
  viability, T/C: 68.7%
[3]
  viability, T/C: 63.3%
[4]
  viability, T/C: 54%
[5]
  viability, T/C: 64.9%
[6]
  viability, T/C: 58%
[7]
  viability, T/C: 65.9%
[8]
  viability, T/C: 54.7%
[9]
  viability, T/C: 55.7%
[10]
  viability, T/C: 57.4%
[11]
  viability, T/C: 54.3%
[12]
  viability, T/C: 64.2%
[13]
  viability, T/C: 62.1%
[14]
  viability, T/C: 64.2%
[15]
  viability, T/C: 57.5%
[16]
  viability, T/C: 55.5%
[17]
  viability, T/C: 58.5%
[18]
  viability, T/C: 61.3%
[19]
  viability, T/C: 65.3%
[20]
  viability, T/C: 58.3%
[21]
  viability, T/C: 51.4%
[22]
  viability, T/C: 52%
[23]
  viability, T/C: 56.2%
[24]
  viability, T/C: 47.3%
[25]
  viability, T/C: 62.1%
[26]
  viability, T/C: 57.7%
[27]
  viability, T/C: 51.1%
[28]
  viability, T/C: 60.1%
[29]
  viability, T/C: 48.5%
[30]
  viability, T/C: 51.2%

## O=C(c1cc(Cc2n[nH]c(=O)c3ccccc23)ccc1F)N1CCN(C(=O)C2CC2)CC1 + NC1CC1c1ccc(-c2cccc(O)c2)cc1
Second compound 0.1 µM
  IC50: 8950 nM
Second compound 0.316 µM
  IC50: 5660 nM
Second compound 1 µM
  IC50: 6290 nM
Second compound 3.16 µM
  IC50: 3740 nM
Second compound 10 µM
  IC50: > 10000 nM
Second compound 0.1 µM, first compound 0.0316 µM
  viability, T/C: 78.1%
Second compound 0.1 µM, first compound 0.1 µM
  viability, T/C: 87%
Second compound 0.1 µM, first compound 0.316 µM
  viability, T/C: 92.7%
Second compound 0.1 µM, first compound 1 µM
  viability, T/C: 72.9%
Second compound 0.1 µM, first compound 3.16 µM
  viability, T/C: 61.4%
Second compound 0.1 µM, first compound 10 µM
  viability, T/C: 48.2%
Second compound 0.316 µM, first compound 0.0316 µM
  viability, T/C: 84.5%
Second compound 0.316 µM, first compound 0.1 µM
  viability, T/C: 76.1%
Second compound 0.316 µM, first compound 0.316 µM
  viability, T/C: 78%
Second compound 0.316 µM, first compound 1 µM
  viability, T/C: 67.5%
Second compound 0.316 µM, first compound 3.16 µM
  viability, T/C: 54.9%
Second compound 0.316 µM, first compound 10 µM
  viability, T/C: 44.1%
Second compound 1 µM, first compound 0.0316 µM
  viability, T/C: 81.4%
Second compound 1 µM, first compound 0.1 µM
  viability, T/C: 74.4%
Second compound 1 µM, first compound 0.316 µM
  viability, T/C: 70%
Second compound 1 µM, first compound 1 µM
  viability, T/C: 65.1%
Second compound 1 µM, first compound 3.16 µM
  viability, T/C: 56.8%
Second compound 1 µM, first compound 10 µM
  viability, T/C: 45.4%
Second compound 3.16 µM, first compound 0.0316 µM
  viability, T/C: 72.1%
Second compound 3.16 µM, first compound 0.1 µM
  viability, T/C: 63.4%
Second compound 3.16 µM, first compound 0.316 µM
  viability, T/C: 68.3%
Second compound 3.16 µM, first compound 1 µM
  viability, T/C: 58.4%
Second compound 3.16 µM, first compound 3.16 µM
  viability, T/C: 52.9%
Second compound 3.16 µM, first compound 10 µM
  viability, T/C: 38.9%
Second compound 10 µM, first compound 0.0316 µM
  viability, T/C: 66.9%
Second compound 10 µM, first compound 0.1 µM
  viability, T/C: 66.8%
Second compound 10 µM, first compound 0.316 µM
  viability, T/C: 63%
Second compound 10 µM, first compound 1 µM
  viability, T/C: 57.9%
Second compound 10 µM, first compound 3.16 µM
  viability, T/C: 52.7%
Second compound 10 µM, first compound 10 µM
  viability, T/C: 51.3%
